Results as given in ChEMBL document CHEMBL1153657, “2-[4-(o-methoxyphenyl)piperazin-1-ylmethyl]-1,3-dioxoperhydroimidazo[1,5-a]pyridine as a new selective 5-HT1A receptor ligand” (Bioorg Med Chem Lett, 1996).

Tests used:
[1] = biological target: T1, Adrenergic receptor alpha-1 (Rattus norvegicus, UniProt P15823+P23944+P43140); experiment: Binding affinity at Alpha-1 adrenergic receptor in rat cerebral cortex membranes by [3H]prazosin displacement.; type: cell membranes, Membrane
T1 sequence (P15823 whole entry): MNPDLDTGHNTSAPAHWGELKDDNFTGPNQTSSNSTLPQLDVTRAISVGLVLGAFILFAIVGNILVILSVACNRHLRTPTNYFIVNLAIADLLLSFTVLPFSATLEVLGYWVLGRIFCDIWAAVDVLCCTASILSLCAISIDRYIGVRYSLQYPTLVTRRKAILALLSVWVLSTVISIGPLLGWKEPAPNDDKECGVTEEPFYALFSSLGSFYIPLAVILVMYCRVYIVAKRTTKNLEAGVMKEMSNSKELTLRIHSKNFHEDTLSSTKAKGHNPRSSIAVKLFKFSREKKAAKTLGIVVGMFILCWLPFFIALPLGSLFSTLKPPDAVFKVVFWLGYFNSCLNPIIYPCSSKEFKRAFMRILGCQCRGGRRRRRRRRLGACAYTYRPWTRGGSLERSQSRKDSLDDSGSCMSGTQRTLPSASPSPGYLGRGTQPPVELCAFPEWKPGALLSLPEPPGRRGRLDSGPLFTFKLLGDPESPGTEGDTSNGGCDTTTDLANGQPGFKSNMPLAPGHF
T1 sequence (P23944 whole entry): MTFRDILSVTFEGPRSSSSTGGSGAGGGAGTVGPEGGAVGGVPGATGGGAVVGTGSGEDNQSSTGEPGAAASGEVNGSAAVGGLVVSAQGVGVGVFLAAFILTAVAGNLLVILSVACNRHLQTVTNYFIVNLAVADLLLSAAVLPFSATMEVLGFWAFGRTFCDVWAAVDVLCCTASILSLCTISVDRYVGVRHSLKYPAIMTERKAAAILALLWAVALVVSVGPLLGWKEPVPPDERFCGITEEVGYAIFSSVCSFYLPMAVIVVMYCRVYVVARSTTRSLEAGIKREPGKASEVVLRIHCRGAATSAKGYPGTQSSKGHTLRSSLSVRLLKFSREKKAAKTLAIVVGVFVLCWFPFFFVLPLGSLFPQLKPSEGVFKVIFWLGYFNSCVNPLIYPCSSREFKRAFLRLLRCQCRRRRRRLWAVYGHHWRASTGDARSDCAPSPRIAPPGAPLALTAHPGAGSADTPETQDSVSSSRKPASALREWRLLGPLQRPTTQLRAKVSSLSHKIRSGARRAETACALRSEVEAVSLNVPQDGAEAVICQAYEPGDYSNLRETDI
T1 sequence (P43140 whole entry): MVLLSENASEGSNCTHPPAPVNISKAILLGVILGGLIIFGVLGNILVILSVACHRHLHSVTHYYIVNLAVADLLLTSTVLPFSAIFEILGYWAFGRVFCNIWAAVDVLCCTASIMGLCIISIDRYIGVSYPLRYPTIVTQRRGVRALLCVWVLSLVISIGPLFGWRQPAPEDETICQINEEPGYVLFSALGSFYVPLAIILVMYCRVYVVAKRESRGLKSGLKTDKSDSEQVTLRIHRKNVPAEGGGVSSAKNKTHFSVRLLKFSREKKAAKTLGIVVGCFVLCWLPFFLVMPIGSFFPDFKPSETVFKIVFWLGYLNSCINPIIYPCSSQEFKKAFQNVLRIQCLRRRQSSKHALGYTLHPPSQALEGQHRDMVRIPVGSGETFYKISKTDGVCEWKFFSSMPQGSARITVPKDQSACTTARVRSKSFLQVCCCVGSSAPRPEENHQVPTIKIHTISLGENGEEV

[2] = biological target: T2, 5-hydroxytryptamine receptor 1A (Rattus norvegicus, UniProt P19327); experiment: Compound was evaluated for its ability to displace [3H]8-OH-DPAT from serotonin 5-hydroxytryptamine 1A receptor in rat cerebral cortex membranes; type: cell membranes, Membrane
T2 sequence (P19327 whole entry): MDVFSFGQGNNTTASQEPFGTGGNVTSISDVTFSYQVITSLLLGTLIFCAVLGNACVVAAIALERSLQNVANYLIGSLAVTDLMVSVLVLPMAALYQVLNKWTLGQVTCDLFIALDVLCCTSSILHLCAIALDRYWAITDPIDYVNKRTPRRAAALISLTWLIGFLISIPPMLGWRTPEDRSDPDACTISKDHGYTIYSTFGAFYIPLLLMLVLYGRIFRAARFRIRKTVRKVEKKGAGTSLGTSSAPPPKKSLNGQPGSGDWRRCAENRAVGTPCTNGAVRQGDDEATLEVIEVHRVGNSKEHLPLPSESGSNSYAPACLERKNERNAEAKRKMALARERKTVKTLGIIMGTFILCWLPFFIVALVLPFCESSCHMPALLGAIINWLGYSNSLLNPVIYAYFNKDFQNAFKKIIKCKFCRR

[3] = biological target: 5-hydroxytryptamine receptor 2A (Rattus norvegicus, UniProt P14842); experiment: Compound was evaluated for binding affinity against 5-hydroxytryptamine 2A receptor using [3H]ketanserin as a radioligand
Chain of 5-hydroxytryptamine receptor 2A (P14842 whole entry): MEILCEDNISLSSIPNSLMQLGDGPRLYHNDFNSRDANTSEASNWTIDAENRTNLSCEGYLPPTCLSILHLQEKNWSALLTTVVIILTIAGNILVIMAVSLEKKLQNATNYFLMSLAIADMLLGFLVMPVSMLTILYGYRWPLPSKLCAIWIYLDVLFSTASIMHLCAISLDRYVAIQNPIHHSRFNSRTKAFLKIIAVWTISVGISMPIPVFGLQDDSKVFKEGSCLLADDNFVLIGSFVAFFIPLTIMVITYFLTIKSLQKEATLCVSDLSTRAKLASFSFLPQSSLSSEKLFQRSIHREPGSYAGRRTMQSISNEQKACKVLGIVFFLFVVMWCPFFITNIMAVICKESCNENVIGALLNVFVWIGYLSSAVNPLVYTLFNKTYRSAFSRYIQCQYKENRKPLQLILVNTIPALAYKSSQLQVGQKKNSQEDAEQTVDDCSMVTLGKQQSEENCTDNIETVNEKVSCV

Row | Structure (SMILES) | Ki [1] [nM] | IC50 [2] [nM] | also measured
1 | COc1ccccc1N1CCN(CCN2C(=O)c3ccccc3C2=O)CC1 | 130 | – | –
2 | COc1ccccc1N1CCN(CCCN2C(=O)c3ccccc3C2=O)CC1 | 33 | – | –
3 | COc1ccccc1N1CCN(CCCCN2C(=O)CC3(CCCC3)CC2=O)CC1 | – | 2 | –
4 | COc1ccccc1N1CCN(CN2C(=O)C3CCCCN3C2=O)CC1 (stereo not given) | – | – | Ki [3]: 1000 nM
5 | COc1ccccc1N1CCN(CCCN2C(=O)CC3(CCCC3)CC2=O)CC1 | – | 80 | –
